Measured values as given in PubChem BioAssay (NCI).
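In this assay, cells in 96-well plates receive the compound at five concentrations for 48 hours. Endpoints are linearly interpolated between the surrounding concentrations. GI50 = concentration required for 50% inhibition of growth. TGI marks complete inhibition of growth.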

What was measured:
Experiment in all cases: DTP human tumour cell line panel, 48 h
[1] = system: SN12C renal
[2] = system: K-562 leukemia
[3] = system: SNB-75 CNS
[4] = system: SF-539 CNS
[5] = system: BT-549 breast
[6] = system: OVCAR-3 ovarian
[7] = system: HOP-62 NSCLC
[8] = system: NCI/ADR-RES ovarian
[9] = system: RPMI-8226 leukemia
[10] = system: SF-295 CNS
[11] = system: TK-10 renal
[12] = system: NCI-H226 lung
[13] = system: HS 578T breast
[14] = system: HL-60(TB) leukemia
[15] = system: OVCAR-8 ovarian
[16] = system: HCT-116 colon
[17] = system: HOP-92 NSCLC
[18] = system: CAKI-1 renal
[19] = system: UACC-62 melanoma
[20] = system: U251 CNS
[21] = system: SW-620 colon
[22] = system: ACHN renal
[23] = system: MALME-3M melanoma
[24] = system: MDA-MB-231 breast
[25] = system: SNB-19 CNS
[26] = system: SK-OV-3 ovarian
[27] = system: 786-0 renal
[28] = system: A498 renal
[29] = system: OVCAR-4 ovarian
[30] = system: UO-31 renal
[31] = system: SF-268 CNS
[32] = system: OVCAR-5 ovarian
[33] = system: M14 melanoma
[34] = system: MOLT-4 leukemia
[35] = system: LOX IMVI melanoma
[36] = system: HT29 colon
[37] = system: HCT-15 colon
[38] = system: NCI-H23 lung
[39] = system: MCF7 breast
[40] = system: T-47D breast
[41] = system: IGROV1 ovarian
[42] = system: NCI-H460 lung
[43] = system: SK-MEL-28 melanoma
[44] = system: SK-MEL-5 melanoma
[45] = system: HCC-2998 colon
[46] = system: PC-3 prostate
[47] = system: CCRF-CEM leukemia
[48] = system: UACC-257 melanoma
[49] = system: RXF 393 renal
[50] = system: SK-MEL-2 melanoma
[51] = system: A549 NSCLC
[52] = system: EKVX NSCLC
[53] = system: NCI-H522 lung
[54] = system: KM12 colon
[55] = system: MDA-MB-435
[56] = system: DU-145 prostate
[57] = system: SR leukemia
[58] = system: COLO 205 colon

NC(=O)c1ccccc1NC(=O)C(=O)C(c1cnc2ccc([N+](=O)[O-])cc2n1)[N+](=O)[O-] (centres undefined)
TGI [1]: > 100 µM | TGI [2]: > 100 µM | TGI [3]: > 100 µM | TGI [4]: > 100 µM | TGI [5]: > 100 µM | TGI [6]: > 100 µM | TGI [7]: > 100 µM | TGI [8]: > 100 µM | TGI [9]: > 100 µM | TGI [10]: > 100 µM | TGI [11]: > 100 µM | TGI [12]: > 100 µM | TGI [13]: > 100 µM | TGI [14]: > 100 µM | TGI [15]: > 100 µM | TGI [16]: > 100 µM | TGI [17]: > 100 µM | TGI [18]: > 100 µM | TGI [19]: > 100 µM | TGI [20]: > 100 µM | TGI [21]: > 100 µM | TGI [22]: > 100 µM | TGI [23]: > 100 µM | TGI [24]: > 100 µM | TGI [25]: > 100 µM | TGI [26]: > 100 µM | TGI [27]: > 100 µM | TGI [28]: > 100 µM | TGI [29]: > 100 µM | TGI [30]: > 100 µM | TGI [31]: > 100 µM | TGI [32]: > 100 µM | TGI [33]: > 100 µM | TGI [34]: > 100 µM | TGI [35]: > 100 µM | TGI [36]: > 100 µM | TGI [37]: > 100 µM | TGI [38]: > 100 µM | TGI [39]: > 100 µM | TGI [40]: > 100 µM | TGI [41]: > 100 µM | TGI [42]: > 100 µM | TGI [43]: > 100 µM | TGI [44]: > 100 µM | TGI [45]: > 100 µM | TGI [46]: > 100 µM | TGI [47]: > 100 µM | TGI [48]: > 100 µM | TGI [49]: > 100 µM | TGI [50]: > 100 µM | TGI [51]: > 100 µM | TGI [52]: > 100 µM | TGI [53]: > 100 µM | TGI [54]: > 100 µM | TGI [55]: > 100 µM

CC(=O)O[C@H]1/C(=C/c2ccc(N(C)C)cc2)C[C@H]2[C@@H]3CC=C4C[C@@H](N5CCCC5)CC[C@]4(C)[C@H]3CC[C@]12C
TGI [1]: > 100 µM | TGI [56]: > 100 µM | TGI [2]: > 100 µM | TGI [3]: > 100 µM | TGI [4]: > 100 µM | TGI [5]: > 100 µM | TGI [6]: > 100 µM | TGI [7]: > 100 µM | TGI [8]: > 100 µM | TGI [9]: > 100 µM | TGI [10]: > 100 µM | TGI [11]: > 100 µM | TGI [12]: > 100 µM | TGI [13]: > 100 µM | TGI [14]: > 100 µM | TGI [15]: > 100 µM | TGI [16]: > 100 µM | TGI [17]: > 100 µM | TGI [19]: > 100 µM | TGI [20]: > 100 µM | TGI [21]: > 100 µM | TGI [22]: > 100 µM | TGI [23]: > 100 µM | TGI [24]: > 100 µM | TGI [57]: > 100 µM | TGI [25]: > 100 µM | TGI [26]: > 100 µM | TGI [27]: > 100 µM | TGI [28]: > 100 µM | TGI [30]: > 100 µM | TGI [31]: > 100 µM | TGI [32]: > 100 µM | TGI [33]: > 100 µM | TGI [34]: > 100 µM | TGI [35]: > 100 µM | TGI [36]: > 100 µM | TGI [37]: > 100 µM | TGI [58]: > 100 µM | TGI [38]: > 100 µM | TGI [39]: > 100 µM | TGI [40]: > 100 µM | TGI [41]: > 100 µM | TGI [42]: > 100 µM | TGI [43]: > 100 µM | TGI [44]: > 100 µM | TGI [46]: > 100 µM | TGI [48]: > 100 µM | TGI [49]: > 100 µM | TGI [50]: > 100 µM | TGI [51]: > 100 µM | TGI [52]: > 100 µM

N#CC1C(N)=NNC1c1ccc(-c2ccc(-c3nc4ccccc4o3)cc2)o1 (centres undefined)
GI50 [1]: 45 µM | TGI [1]: > 100 µM | GI50 [56]: 15.3 µM | TGI [56]: 41.1 µM | GI50 [2]: 64.6 µM | TGI [2]: > 100 µM | GI50 [3]: > 100 µM | TGI [3]: > 100 µM | GI50 [5]: 24 µM | TGI [5]: 75.7 µM | GI50 [6]: 2.12 µM | TGI [6]: 13.2 µM | GI50 [7]: > 100 µM | TGI [7]: > 100 µM | GI50 [8]: 36 µM | TGI [8]: 75.6 µM | GI50 [9]: 28.6 µM | TGI [9]: > 100 µM | GI50 [10]: 66.4 µM | TGI [10]: > 100 µM | GI50 [11]: 25.5 µM | TGI [11]: 74.7 µM | GI50 [12]: 15.1 µM | TGI [12]: 74.5 µM | GI50 [13]: 29.6 µM | TGI [13]: > 100 µM | GI50 [14]: 57.7 µM | TGI [14]: > 100 µM | GI50 [15]: 15.3 µM | TGI [15]: 88 µM | GI50 [16]: 5.91 µM | TGI [16]: > 100 µM | GI50 [17]: 18.2 µM | TGI [17]: > 100 µM | GI50 [18]: 14.8 µM | TGI [18]: 44.2 µM | GI50 [19]: 23.9 µM | TGI [19]: 91.1 µM | GI50 [20]: 28.4 µM | TGI [20]: > 100 µM | GI50 [21]: 74.9 µM | TGI [21]: > 100 µM | GI50 [22]: 14.6 µM | TGI [22]: 51.7 µM | GI50 [24]: 15.3 µM | TGI [24]: 65.8 µM | GI50 [57]: > 100 µM | TGI [57]: > 100 µM | GI50 [25]: > 100 µM | TGI [25]: > 100 µM | GI50 [26]: 37.4 µM | TGI [26]: > 100 µM | GI50 [27]: > 100 µM | TGI [27]: > 100 µM | GI50 [29]: 90.8 µM | TGI [29]: > 100 µM | GI50 [30]: 30.1 µM | TGI [30]: > 100 µM | GI50 [31]: 20 µM | TGI [31]: 51.7 µM | GI50 [32]: 38.1 µM | TGI [32]: > 100 µM | GI50 [33]: 63.7 µM | TGI [33]: > 100 µM | GI50 [34]: > 100 µM | TGI [34]: > 100 µM | GI50 [35]: 23.3 µM | TGI [35]: 64.7 µM | GI50 [37]: 32.3 µM | TGI [37]: > 100 µM | GI50 [58]: 30.9 µM | TGI [58]: > 100 µM | GI50 [40]: 68.5 µM | TGI [40]: > 100 µM | GI50 [41]: 69.4 µM | TGI [41]: > 100 µM | GI50 [42]: 23.8 µM | TGI [42]: > 100 µM | GI50 [43]: 26 µM | TGI [43]: > 100 µM | GI50 [44]: 21.4 µM | TGI [44]: 60.5 µM | GI50 [46]: 40.3 µM | TGI [46]: > 100 µM | GI50 [48]: 23.1 µM | TGI [48]: > 100 µM | GI50 [50]: 37.5 µM | TGI [50]: > 100 µM | GI50 [51]: 32.3 µM | TGI [51]: > 100 µM | GI50 [52]: 14.6 µM | TGI [52]: 81.2 µM | GI50 [53]: 53.4 µM | TGI [53]: > 100 µM | GI50 [54]: 24 µM | TGI [54]: 93.8 µM | GI50 [55]: 36.4 µM | TGI [55]: > 100 µM
